Values joined by “and” are separate entries in the source; they are usually repeats but may differ in a detail not shown here. Equal values may be shown once.
Assay: xn = mol fraction of the nth substance listed

CCCCCCCC[P+](CC)(CC)CC.N#Cc1ccc[n-]1 + OCCN(CCO)CCO
viscosity [mPa·s], 100 kPa
Conditions	293.15 K	298.15 K	303.15 K	313.15 K
x1 = 0.014	950	622	405	185
x1 = 0.025	986	640	415	190
x1 = 0.039	1004	657	426	193
x1 = 0.049	1011	660	426	193
x1 = 0.104	939	596	380	175
x1 = 0.167	824	539	351	163
x1 = 0.223	812	533	352	166
x1 = 0.315	722	474	314	152
x1 = 0.508	619	422	284	140
x1 = 0.647	600	406	273	136
x1 = 0.809	438	301	202	101

O=C1CCCC1 + CN(C)c1ccccc1
viscosity [mPa·s], 101 kPa
Conditions	303.15 K	308.15 K
x2 = 0.0705	1.022	0.948
x2 = 0.1321	1.04	0.964
x2 = 0.2014	1.062	0.981
x2 = 0.2754	1.083	0.997
x2 = 0.3412	1.101	1.011
x2 = 0.4012	1.114	1.023
x2 = 0.4825	1.13	1.039
x2 = 0.5612	1.143	1.053
x2 = 0.6405	1.153	1.066
x2 = 0.7025	1.158	1.076
x2 = 0.7758	1.164	1.087
x2 = 0.8512	1.168	1.096
x2 = 0.9215	1.169	1.104

O=C1CCCC1 + Nc1cccc(Cl)c1
viscosity [mPa·s], 100 kPa
Conditions	x2 = 0.0805	x2 = 0.1814	x2 = 0.2804	x2 = 0.3815	x2 = 0.4998	x2 = 0.5995	x2 = 0.6995	x2 = 0.7875	x2 = 0.9071
303.15 K	1.111	1.291	1.493	1.731	2.058	2.379	2.752	3.127	3.719
308.15 K	1.047	1.211	1.395	1.611	1.903	2.19	2.521	2.852	3.373
313.15 K	0.9683	1.117	1.282	1.474	1.734	1.987	2.278	2.568	3.023
318.15 K	0.9063	1.039	1.185	1.354	1.58	1.799	2.049	2.296	2.681

ClC=C(Cl)Cl + ClC(Cl)Cl
303.15 K, 101.33 kPa
Conditions	viscosity [mPa·s]
x1 = 0.1451	0.517
x1 = 0.2431	0.521
x1 = 0.3368	0.521
x1 = 0.4687	0.521
x1 = 0.5793	0.519
x1 = 0.6718	0.519
x1 = 0.7912	0.519
x1 = 0.868	0.518
x1 = 0.9526	0.518

O=C(CO)[C@@H](O)[C@H](O)[C@H](O)CO + O
Conditions	viscosity
293.15 K, 101 kPa, x1 = 0.011	1.18 mPa·s and 1.18 mPa·s
293.15 K, 101 kPa, x1 = 0.0244	1.84 mPa·s
293.15 K, 101 kPa, x1 = 0.0411	2.73 mPa·s
293.15 K, 101 kPa, x1 = 0.0625	5.02 mPa·s
293.15 K, 101 kPa, x1 = 0.0909	10.48 mPa·s and 11 mPa·s
293.15 K, 101 kPa, x1 = 0.13	31.43 mPa·s and 32 mPa·s
298.15 K, 101 kPa, x1 = 0.0005	0.934 mPa·s and 0.934 mPa·s
298.15 K, 101 kPa, x1 = 0.0007	0.9442 mPa·s and 0.9442 mPa·s
298.15 K, 101 kPa, x1 = 0.0009	0.9494 mPa·s and 0.9494 mPa·s
298.15 K, 101 kPa, x1 = 0.0018	0.9838 mPa·s and 0.9838 mPa·s
298.15 K, 101 kPa, x1 = 0.002	0.9772 mPa·s and 0.9772 mPa·s
298.15 K, 101 kPa, x1 = 0.00201	0.944 mPa·s
298.15 K, 101 kPa, x1 = 0.004	1.063 mPa·s
298.15 K, 101 kPa, x1 = 0.00623	1.094 mPa·s
298.15 K, 101 kPa, x1 = 0.011	1.02 mPa·s and 1 mPa·s
298.15 K, 101 kPa, x1 = 0.0244	1.59 mPa·s
298.15 K, 101 kPa, x1 = 0.0411	2.15 mPa·s
298.15 K, 101 kPa, x1 = 0.0625	4.17 mPa·s
298.15 K, 101 kPa, x1 = 0.0909	8 mPa·s and 8 mPa·s
298.15 K, 101 kPa, x1 = 0.13	24.3 mPa·s and 25 mPa·s
298.15 K, 101.3 kPa, x1 = 0.002	0.93 mPa·s
298.15 K, 101.3 kPa, x1 = 0.00359	0.969 mPa·s
298.15 K, 101.3 kPa, x1 = 0.007154	1.055 mPa·s
298.15 K, 101.3 kPa, x1 = 0.01069	1.15 mPa·s
298.15 K, 101.3 kPa, x1 = 0.01421	1.252 mPa·s
298.15 K, 101.3 kPa, x1 = 0.0177	1.362 mPa·s
298.15 K, 101.3 kPa, x1 = 0.02116	1.483 mPa·s
303.15 K, 100 kPa, x1 = 0.0009	0.8331 mPa·s
303.15 K, 100 kPa, x1 = 0.0027	0.8672 mPa·s
303.15 K, 100 kPa, x1 = 0.0045	0.9015 mPa·s
303.15 K, 100 kPa, x1 = 0.0063	0.9349 mPa·s
303.15 K, 101.3 kPa, x1 = 0.002	0.834 mPa·s
308.15 K, 101 kPa, x1 = 0.00201	0.7816 mPa·s
308.15 K, 101 kPa, x1 = 0.004	0.8663 mPa·s
308.15 K, 101 kPa, x1 = 0.00623	0.8883 mPa·s
308.15 K, 101 kPa, x1 = 0.007265	0.863 mPa·s
308.15 K, 101 kPa, x1 = 0.01082	0.928 mPa·s
308.15 K, 101 kPa, x1 = 0.011	0.93 mPa·s and 0.95 mPa·s
308.15 K, 101 kPa, x1 = 0.01435	1.01 mPa·s
308.15 K, 101 kPa, x1 = 0.02129	1.189 mPa·s
308.15 K, 101 kPa, x1 = 0.0244	1.27 mPa·s
308.15 K, 101 kPa, x1 = 0.02481	1.305 mPa·s
308.15 K, 101 kPa, x1 = 0.02821	1.394 mPa·s
308.15 K, 101 kPa, x1 = 0.04021	1.833 mPa·s
308.15 K, 101 kPa, x1 = 0.0411	1.96 mPa·s
308.15 K, 101 kPa, x1 = 0.0435	1.998 mPa·s
308.15 K, 101 kPa, x1 = 0.05099	2.372 mPa·s
308.15 K, 101 kPa, x1 = 0.0625	3.08 mPa·s
308.15 K, 101 kPa, x1 = 0.0909	5.99 mPa·s and 6.05 mPa·s
308.15 K, 101 kPa, x1 = 0.13	14.76 mPa·s and 14 mPa·s
308.15 K, 101.3 kPa, x1 = 0.002	0.753 mPa·s
313.15 K, 101 kPa, x1 = 0.011	0.77 mPa·s
313.15 K, 101 kPa, x1 = 0.0244	1.12 mPa·s
313.15 K, 101 kPa, x1 = 0.0411	1.52 mPa·s
313.15 K, 101 kPa, x1 = 0.0625	2.83 mPa·s
313.15 K, 101 kPa, x1 = 0.0909	4.51 mPa·s and 4.6 mPa·s
313.15 K, 101 kPa, x1 = 0.13	11.83 mPa·s and 11.8 mPa·s
313.15 K, 101.3 kPa, x1 = 0.002	0.685 mPa·s
318.15 K, 101 kPa, x1 = 0.007256	0.696 mPa·s
318.15 K, 101 kPa, x1 = 0.01084	0.758 mPa·s
318.15 K, 101 kPa, x1 = 0.02144	0.946 mPa·s
318.15 K, 101 kPa, x1 = 0.0244	0.99 mPa·s
318.15 K, 101 kPa, x1 = 0.02474	1.021 mPa·s
318.15 K, 101 kPa, x1 = 0.03978	1.469 mPa·s
318.15 K, 101 kPa, x1 = 0.0411	1.24 mPa·s
318.15 K, 101 kPa, x1 = 0.05983	2.055 mPa·s
318.15 K, 101 kPa, x1 = 0.0625	2.3 mPa·s
318.15 K, 101 kPa, x1 = 0.0909	3.65 mPa·s
318.15 K, 101 kPa, x1 = 0.13	9.57 mPa·s and 8 mPa·s
318.15 K, 101.3 kPa, x1 = 0.002	0.625 mPa·s
323.15 K, 101 kPa, x1 = 0.011	0.69 mPa·s
323.15 K, 101 kPa, x1 = 0.0244	0.92 mPa·s
323.15 K, 101 kPa, x1 = 0.0411	1.29 mPa·s
323.15 K, 101 kPa, x1 = 0.0625	2.04 mPa·s
323.15 K, 101 kPa, x1 = 0.0909	3.4 mPa·s
323.15 K, 101 kPa, x1 = 0.13	7.81 mPa·s and 7.5 mPa·s

ClC=C(Cl)Cl + COCCO
viscosity [mPa·s], 101.33 kPa
Conditions	x1 = 0.1175	x1 = 0.2132	x1 = 0.3211	x1 = 0.4746	x1 = 0.5328	x1 = 0.6149	x1 = 0.7063	x1 = 0.8042	x1 = 0.9056
303.15 K	1.317	1.181	1.041	0.86	0.804	0.731	0.659	0.597	0.546
313.15 K	1.074	0.981	0.88	0.746	0.703	0.648	0.591	0.543	0.504

C1COCCN1 + OCCO
viscosity [mPa·s], 101 kPa
Conditions	293.15 K	303.15 K	313.15 K	323.15 K
x1 = 0.06476	23.01	–	–	–
x1 = 0.06828	–	–	9.851	–
x1 = 0.07	23.22	15.77	9.66	7
x1 = 0.2	24.69	16.33	10.32	7.69
x1 = 0.2273	24.37	–	–	–
x1 = 0.2296	–	–	10.49	–
x1 = 0.4	21.35	14.19	9.34	7.13
x1 = 0.4103	20.98	–	–	–
x1 = 0.4144	–	–	9.259	–
x1 = 0.6	11.83	8.07	6.02	4.41
x1 = 0.6173	–	–	6.339	–
x1 = 0.6201	11.78	–	–	–
x1 = 0.8601	4.454	–	–	–
x1 = 0.8629	–	–	2.391	–
x1 = 0.9	3.94	2.92	2.24	1.72

CC(O)CO (centres undefined) + CCCO
313 K, 101 kPa
Conditions	viscosity [mPa·s]
x1 = 0.1	1.9
x1 = 0.3	2.9
x1 = 0.5	4.8
x1 = 0.7	8.3
x1 = 0.9	15

From the CheMixHub viscosity set
